Results as given in patent US12448352B2, “Beta adrenergic agonist and methods of using the same” (Curasen Therapeutics, Inc., priority 2019, dated 2025).

Key:
[1] = Dog pharmacokinetic study; type: in vivo, male Beagle dogs
Description: The rat pharmacokinetics studies of exemplary compounds 03-3, 03-5, and 03-115 were conducted with male SD rats. These rats were typically about 6-8 weeks old, weighing 200 g to 300 g. Animals were fasted overnight and free access to food 4 hours after dosing. A required volume of vehicle was added to reach the target concentration of the test article and vehicle component to prepare for the dosing. The dosing vehicle was PEG400 or 30% PEG400 in saline for IV, or 0.5% methylcellulose in water for PO. For IV dosing, the animals were administered intravenously via tail vein. For PO dosing, the animals were administered via oral gavage. After dosing, blood sample was collected (˜0.2 mL per time point) through jugular vein or heart puncture. Blood of each sample was transferred into plastic micro centrifuge tubes containing EDTA-K2. Collection tubes with blood samples and anticoagulant were inverted several times for proper mixing of the tube contents and then placed on wet ice. The blood samples were centrifuged at 2000 g for 5 minutes at 4° C. to obtain plasma which was stored in a freezer at −75±15° C. prior to analysis. Samples were analyzed using LC-MS/MS. WinNonlin were used for pharmacokinetic calculations.
Dog pharmacokinetics studies of exemplary compounds 03-3, 03-5, and 03-115 were conducted substantially similarly to the rat pharmacokinetic studies, instead using male Beagle dogs. Animals for PO studies were food fasted overnight prior to dosing and were fed approximately 2 hours after dosing. Animals for IV studies had free access to food and water. Blood samples were collected through venipuncture of peripheral veins except the dosing vein.

MDCK-MDR1 cells = assay: MDCK-MDR1 permeability assay; type: in vitro ADME; design: A-B (Papp apical to basolateral) / B-A (Papp basolateral to apical): unit not given here
Description: Preparation of MDCK-MDR1 Cells. Cell culture medium of was added to each well of the Transwell insert (50 μL) and reservoir (25 mL). The HTS transwell plates were then incubated at 37° C., 5% CO2 for 1 hour before cell seeding. MDCK-MDR1 cells were diluted to 1.56×10^6 cells/mL with culture medium and 50 μL of cell suspension were dispensed into the filter well of the 96-well HTS Transwell plate. Cells were cultivated for 4-8 days in a cell culture incubator at 37° C., 5% CO2, 95% relative humidity. Cell culture medium was replaced every other day, beginning no later than 24 hours after initial plating.
Preparation of Stock Solutions. 10 mM stock solutions of test compounds were prepared in DMSO. The stock solutions of positive controls were prepared in DMSO at the concentration of 10 mM. Metoprolol, prazosin and imatinib were used as control compounds in this assay.
Assessment of Cell Monolayer Integrity. Medium was removed from the reservoir and each Transwell insert and replaced with prewarmed fresh culture medium. Transepithelial electrical resistance (TEER) across the monolayer was measured using Millicell Epithelial Volt-Ohm measuring system (Millipore, USA). The Plate was returned to the incubator once the measurement was done. TEER value should be greater than 42 ohm·cm2, which indicates the well-qualified MDCK-MDR1 monolayer. The TEER value was calculated according to the following equation: TEER measurement (ohms)×Area of membrane (cm^2)=TEER value (ohm·cm^2)
Assay Procedures. The MDCK-MDR1 plate was removed from the incubator and washed twice with pre-warmed HBSS (10 mM HEPES, pH 7.4), and then incubated at 37° C. for 30 minutes. The stock solutions of test compounds and controls were diluted in DMSO to get 1 mM solutions and then diluted with HBSS (10 mM HEPES, pH 7.4) to get 5 μM working solutions. The final concentration of DMSO in the incubation system was 0.5%. […]

For `Cc1ncccc1[C@@H](O)CNC(C)(C)C` [Compound 03-115], the AUCInf ([1]; PO 0.5 mg/kg) was 132 ng·h/mL, the Cmax ([1]; PO 0.5 mg/kg) was 72.3 ng/mL and the MRT ([1]; PO 0.5 mg/kg) was 1.82 h. The Tmax ([1]; PO 0.5 mg/kg) was 0.5 h, the AUCInf ([1]; PO 1.5 mg/kg) was 537 ng·h/mL and the Cmax ([1]; PO 1.5 mg/kg) was 387 ng/mL. For the same molecule, the MRT ([1]; PO 1.5 mg/kg) was 1.69 h, the Tmax ([1]; PO 1.5 mg/kg) was 0.33 h and the “A-B (Papp apical to basolateral)” value (MDCK-MDR1 cells; MDCK-MDR1, 5 μM, 2 hours) was 6.96. For the same molecule, the “B-A (Papp basolateral to apical)” value (MDCK-MDR1 cells; MDCK-MDR1, 5 μM, 2 hours) was 10.98 and the “Efflux Ratio” value (MDCK-MDR1 cells; MDCK-MDR1, Papp (B-A)/Papp (A-B)) was 1.58.
